Results as given in the supplement of paper PMC10307832.

What was measured:
Experiment in all cases: relative viability (nuclei count vs DMSO), 5 days (fraction); higher = more cells survive
NCI-H2347 = test system: NCI-H2347
Procedure, shortened: (§1)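 Lung cancer cell lines, seeded in 1536-well plates, were treated the following day by pin tool with a single drug or with five library-drug doses (not always all listed) in √10 steps on top of a fixed anchor-drug dose. Cells were fixed and nuclei stained in one step after 5 days, and nuclei were counted. Relative viability is the nuclei count for treated wells divided by that for vehicle wells, reported as medians of duplicate plates.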

COR-L23 = test system: COR-L23
Procedure, shortened: as §1

HOP-62 = test system: HOP-62
Procedure, shortened: as §1

NCI-H1993 = test system: NCI-H1993
Procedure, shortened: as §1

NCI-H647 = test system: NCI-H647
Procedure, shortened: as §1

SK-MES-1 = test system: SK-MES-1
Procedure, shortened: as §1

NCI-H1792 = test system: NCI-H1792
Procedure, shortened: as §1

NCI-H522 = test system: NCI-H522
Procedure, shortened: as §1

NCI-H1734 = test system: NCI-H1734
Procedure, shortened: as §1

COR-L 105 = test system: COR-L 105
Procedure, shortened: as §1

NCI-H2228 = test system: NCI-H2228
Procedure, shortened: as §1

UMC-11 = test system: UMC-11
Procedure, shortened: as §1

NCI-H1395 = test system: NCI-H1395
Procedure, shortened: as §1

HARA = test system: HARA
Procedure, shortened: as §1

NCI-H1755 = test system: NCI-H1755
Procedure, shortened: as §1

NCI-H838 = test system: NCI-H838
Procedure, shortened: as §1

NCI-H1793 = test system: NCI-H1793
Procedure, shortened: as §1

NCI-H2170 = test system: NCI-H2170
Procedure, shortened: as §1

NCI-H358 = test system: NCI-H358
Procedure, shortened: as §1

HCC-15 = test system: HCC-15
Procedure, shortened: as §1

NCI-H2009 = test system: NCI-H2009
Procedure, shortened: as §1

NCI-H1355 = test system: NCI-H1355
Procedure, shortened: as §1

COc1cc2nccc(Oc3ccc(NC(=O)Nc4cc(C)on4)c(Cl)c3)c2cc1OC [Tivozanib] + CC(=O)Nc1cccc(-n2c(=O)n(C3CC3)c(=O)c3c(Nc4ccc(I)cc4F)n(C)c(=O)c(C)c32)c1 [Trametinib] (partner 0.02 µM)
relative viability (NCI-H2347; first compound 0.005 µM): 0.311
relative viability (NCI-H2347; first compound 0.01581 µM): 0.27
relative viability (NCI-H2347; first compound 0.05 µM): 0.294
relative viability (NCI-H2347; first compound 0.1581 µM): 0.317
relative viability (NCI-H2347; first compound 0.5 µM): 0.284
relative viability (COR-L23; first compound 0.005 µM): 0.542
relative viability (COR-L23; first compound 0.01581 µM): 0.577
relative viability (COR-L23; first compound 0.05 µM): 0.588
relative viability (COR-L23; first compound 0.1581 µM): 0.421
relative viability (COR-L23; first compound 0.5 µM): 0.545
relative viability (HOP-62; first compound 0.005 µM): 0.343
relative viability (HOP-62; first compound 0.01581 µM): 0.398
relative viability (HOP-62; first compound 0.05 µM): 0.439
relative viability (HOP-62; first compound 0.1581 µM): 0.377
relative viability (HOP-62; first compound 0.5 µM): 0.502
relative viability (NCI-H1993; first compound 0.005 µM): 0.562
relative viability (NCI-H1993; first compound 0.01581 µM): 0.354
relative viability (NCI-H1993; first compound 0.05 µM): 0.625
relative viability (NCI-H1993; first compound 0.1581 µM): 0.63
relative viability (NCI-H1993; first compound 0.5 µM): 0.502
relative viability (NCI-H647; first compound 0.005 µM): 0.521
relative viability (NCI-H647; first compound 0.01581 µM): 0.461
relative viability (NCI-H647; first compound 0.05 µM): 0.483
relative viability (NCI-H647; first compound 0.1581 µM): 0.408
relative viability (NCI-H647; first compound 0.5 µM): 0.49
relative viability (SK-MES-1; first compound 0.005 µM): 0.542
relative viability (SK-MES-1; first compound 0.01581 µM): 0.602
relative viability (SK-MES-1; first compound 0.05 µM): 0.558
relative viability (SK-MES-1; first compound 0.1581 µM): 0.542
relative viability (SK-MES-1; first compound 0.5 µM): 0.7
relative viability (NCI-H1792; first compound 0.005 µM): 0.401
relative viability (NCI-H1792; first compound 0.01581 µM): 0.397
relative viability (NCI-H1792; first compound 0.05 µM): 0.438
relative viability (NCI-H1792; first compound 0.5 µM): 0.632
relative viability (NCI-H522; first compound 0.005 µM): 0.877
relative viability (NCI-H522; first compound 0.01581 µM): 0.732
relative viability (NCI-H522; first compound 0.05 µM): 0.705
relative viability (NCI-H522; first compound 0.1581 µM): 0.684
relative viability (NCI-H522; first compound 0.5 µM): 0.804
relative viability (NCI-H1734; first compound 0.005 µM): 0.645
relative viability (NCI-H1734; first compound 0.01581 µM): 0.642
relative viability (NCI-H1734; first compound 0.05 µM): 0.666
relative viability (NCI-H1734; first compound 0.1581 µM): 0.479
relative viability (NCI-H1734; first compound 0.5 µM): 0.638
relative viability (COR-L 105; first compound 0.005 µM): 0.417
relative viability (COR-L 105; first compound 0.01581 µM): 0.451
relative viability (COR-L 105; first compound 0.05 µM): 0.454
relative viability (COR-L 105; first compound 0.1581 µM): 0.482
relative viability (COR-L 105; first compound 0.5 µM): 0.494
relative viability (NCI-H2228; first compound 0.005 µM): 0.55
relative viability (NCI-H2228; first compound 0.01581 µM): 0.595
relative viability (NCI-H2228; first compound 0.05 µM): 0.514
relative viability (NCI-H2228; first compound 0.1581 µM): 0.249
relative viability (NCI-H2228; first compound 0.5 µM): 0.539
relative viability (UMC-11; first compound 0.005 µM): 0.66
relative viability (UMC-11; first compound 0.01581 µM): 0.67
relative viability (UMC-11; first compound 0.05 µM): 0.754
relative viability (UMC-11; first compound 0.1581 µM): 0.533
relative viability (UMC-11; first compound 0.5 µM): 0.529
relative viability (NCI-H1395; first compound 0.005 µM): 0.992
relative viability (NCI-H1395; first compound 0.01581 µM): 0.961
relative viability (NCI-H1395; first compound 0.05 µM): 1.17
relative viability (NCI-H1395; first compound 0.1581 µM): 0.952
relative viability (NCI-H1395; first compound 0.5 µM): 0.938
relative viability (HARA; first compound 0.005 µM): 0.628
relative viability (HARA; first compound 0.01581 µM): 0.817
relative viability (HARA; first compound 0.05 µM): 0.615
relative viability (HARA; first compound 0.1581 µM): 1.06
relative viability (HARA; first compound 0.5 µM): 0.744
relative viability (NCI-H1755; first compound 0.005 µM): 0.664
relative viability (NCI-H1755; first compound 0.01581 µM): 0.75
relative viability (NCI-H1755; first compound 0.05 µM): 0.804
relative viability (NCI-H1755; first compound 0.1581 µM): 0.739
relative viability (NCI-H1755; first compound 0.5 µM): 0.77
relative viability (NCI-H838; first compound 0.005 µM): 0.514
relative viability (NCI-H838; first compound 0.01581 µM): 0.555
relative viability (NCI-H838; first compound 0.05 µM): 0.552
relative viability (NCI-H838; first compound 0.1581 µM): 0.34
relative viability (NCI-H838; first compound 0.5 µM): 0.504
relative viability (NCI-H1793; first compound 0.005 µM): 0.305
relative viability (NCI-H1793; first compound 0.01581 µM): 0.457
relative viability (NCI-H1793; first compound 0.05 µM): 0.471
relative viability (NCI-H1793; first compound 0.5 µM): 0.445
relative viability (NCI-H2170; first compound 0.005 µM): 0.827
relative viability (NCI-H2170; first compound 0.01581 µM): 0.92
relative viability (NCI-H2170; first compound 0.05 µM): 0.893
relative viability (NCI-H2170; first compound 0.5 µM): 0.983
relative viability (NCI-H358; first compound 0.005 µM): 0.124
relative viability (NCI-H358; first compound 0.01581 µM): 0.153
relative viability (NCI-H358; first compound 0.05 µM): 0.161
relative viability (NCI-H358; first compound 0.1581 µM): 0.108
relative viability (NCI-H358; first compound 0.5 µM): 0.144
relative viability (HCC-15; first compound 0.005 µM): 0.391
relative viability (HCC-15; first compound 0.01581 µM): 0.365
relative viability (HCC-15; first compound 0.05 µM): 0.364
relative viability (HCC-15; first compound 0.1581 µM): 0.422
relative viability (HCC-15; first compound 0.5 µM): 0.395
relative viability (NCI-H2009; first compound 0.005 µM): 0.269
relative viability (NCI-H2009; first compound 0.01581 µM): 0.323
relative viability (NCI-H2009; first compound 0.05 µM): 0.295
relative viability (NCI-H2009; first compound 0.1581 µM): 0.204
relative viability (NCI-H2009; first compound 0.5 µM): 0.339
relative viability (NCI-H1355; first compound 0.005 µM): 0.413
relative viability (NCI-H1355; first compound 0.01581 µM): 0.432
relative viability (NCI-H1355; first compound 0.05 µM): 0.455
relative viability (NCI-H1355; first compound 0.1581 µM): 0.33
relative viability (NCI-H1355; first compound 0.5 µM): 0.408
